Tests used:
[1] = biological target: T1, Sodium channel alpha subunits; brain (Types I, II, III) (Homo sapiens, UniProt P35498+Q99250+Q9NY46); details: Cavia porcellus; Cerebral cortex; at 100 µM
[2] = biological target: T1, Sodium channel alpha subunits; brain (Types I, II, III); details: Cavia porcellus; Cerebral cortex; at 10 µM
[3] = biological target: T1, Sodium channel alpha subunits; brain (Types I, II, III); assay: Inhibition of binding of Batrachotoxinin [3H]BTX-B to high affinity sites on voltage dependent sodium channels in a vesicular preparation from guinea pig cerebral cortex; format: tissue-based, Cavia porcellus

T1 sequence (Q99250 whole entry, looked up, other chains not shown): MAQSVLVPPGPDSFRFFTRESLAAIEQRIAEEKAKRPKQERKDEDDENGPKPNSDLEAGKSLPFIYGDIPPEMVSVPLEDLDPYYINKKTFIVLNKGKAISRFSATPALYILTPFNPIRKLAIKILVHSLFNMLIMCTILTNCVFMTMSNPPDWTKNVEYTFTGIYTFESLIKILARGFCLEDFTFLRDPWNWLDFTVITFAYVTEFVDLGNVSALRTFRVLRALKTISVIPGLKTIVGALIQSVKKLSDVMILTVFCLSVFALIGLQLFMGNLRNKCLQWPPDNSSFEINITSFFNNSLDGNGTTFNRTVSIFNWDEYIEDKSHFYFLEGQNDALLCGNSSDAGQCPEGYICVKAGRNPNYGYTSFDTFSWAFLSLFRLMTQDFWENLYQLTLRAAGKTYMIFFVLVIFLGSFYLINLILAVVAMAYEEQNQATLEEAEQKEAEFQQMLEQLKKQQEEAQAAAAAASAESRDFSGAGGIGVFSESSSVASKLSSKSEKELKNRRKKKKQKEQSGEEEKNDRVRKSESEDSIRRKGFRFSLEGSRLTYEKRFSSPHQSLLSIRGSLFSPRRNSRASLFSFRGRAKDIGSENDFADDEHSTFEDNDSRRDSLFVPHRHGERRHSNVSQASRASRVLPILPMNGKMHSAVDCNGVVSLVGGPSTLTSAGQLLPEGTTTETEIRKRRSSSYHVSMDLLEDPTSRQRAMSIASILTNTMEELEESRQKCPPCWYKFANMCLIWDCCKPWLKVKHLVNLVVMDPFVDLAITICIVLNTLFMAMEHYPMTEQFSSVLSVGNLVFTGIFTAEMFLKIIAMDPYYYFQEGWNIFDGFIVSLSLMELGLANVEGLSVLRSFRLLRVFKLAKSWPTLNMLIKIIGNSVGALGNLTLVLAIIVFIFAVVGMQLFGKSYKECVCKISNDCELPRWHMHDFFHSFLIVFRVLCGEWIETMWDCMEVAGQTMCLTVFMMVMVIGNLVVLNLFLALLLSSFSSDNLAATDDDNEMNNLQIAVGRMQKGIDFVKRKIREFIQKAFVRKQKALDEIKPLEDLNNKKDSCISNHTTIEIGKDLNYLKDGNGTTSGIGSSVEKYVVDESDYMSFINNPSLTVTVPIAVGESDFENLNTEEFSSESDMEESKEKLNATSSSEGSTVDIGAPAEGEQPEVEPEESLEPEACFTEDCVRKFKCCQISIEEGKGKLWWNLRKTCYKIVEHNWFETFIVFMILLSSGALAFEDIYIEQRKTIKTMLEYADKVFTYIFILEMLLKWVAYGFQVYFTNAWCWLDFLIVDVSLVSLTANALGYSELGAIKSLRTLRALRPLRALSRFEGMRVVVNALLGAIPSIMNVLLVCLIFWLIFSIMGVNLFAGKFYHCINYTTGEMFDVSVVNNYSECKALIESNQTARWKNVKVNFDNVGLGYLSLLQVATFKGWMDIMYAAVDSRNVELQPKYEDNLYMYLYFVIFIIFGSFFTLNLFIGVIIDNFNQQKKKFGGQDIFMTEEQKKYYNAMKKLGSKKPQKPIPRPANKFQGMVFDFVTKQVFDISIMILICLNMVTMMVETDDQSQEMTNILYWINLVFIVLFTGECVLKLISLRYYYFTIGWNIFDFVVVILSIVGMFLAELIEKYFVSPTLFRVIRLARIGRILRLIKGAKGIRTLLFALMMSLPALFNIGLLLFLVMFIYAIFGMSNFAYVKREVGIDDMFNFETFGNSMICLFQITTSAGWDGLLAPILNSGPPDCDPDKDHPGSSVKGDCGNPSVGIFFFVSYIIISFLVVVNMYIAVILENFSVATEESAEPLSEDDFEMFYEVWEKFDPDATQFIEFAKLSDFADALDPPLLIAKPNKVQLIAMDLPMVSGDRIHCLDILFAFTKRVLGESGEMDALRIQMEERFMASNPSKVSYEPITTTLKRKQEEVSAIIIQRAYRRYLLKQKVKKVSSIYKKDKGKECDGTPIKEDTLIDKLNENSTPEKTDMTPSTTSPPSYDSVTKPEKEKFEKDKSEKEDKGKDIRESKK
T1 sequence (Q9NY46 whole entry, looked up, other chains not shown): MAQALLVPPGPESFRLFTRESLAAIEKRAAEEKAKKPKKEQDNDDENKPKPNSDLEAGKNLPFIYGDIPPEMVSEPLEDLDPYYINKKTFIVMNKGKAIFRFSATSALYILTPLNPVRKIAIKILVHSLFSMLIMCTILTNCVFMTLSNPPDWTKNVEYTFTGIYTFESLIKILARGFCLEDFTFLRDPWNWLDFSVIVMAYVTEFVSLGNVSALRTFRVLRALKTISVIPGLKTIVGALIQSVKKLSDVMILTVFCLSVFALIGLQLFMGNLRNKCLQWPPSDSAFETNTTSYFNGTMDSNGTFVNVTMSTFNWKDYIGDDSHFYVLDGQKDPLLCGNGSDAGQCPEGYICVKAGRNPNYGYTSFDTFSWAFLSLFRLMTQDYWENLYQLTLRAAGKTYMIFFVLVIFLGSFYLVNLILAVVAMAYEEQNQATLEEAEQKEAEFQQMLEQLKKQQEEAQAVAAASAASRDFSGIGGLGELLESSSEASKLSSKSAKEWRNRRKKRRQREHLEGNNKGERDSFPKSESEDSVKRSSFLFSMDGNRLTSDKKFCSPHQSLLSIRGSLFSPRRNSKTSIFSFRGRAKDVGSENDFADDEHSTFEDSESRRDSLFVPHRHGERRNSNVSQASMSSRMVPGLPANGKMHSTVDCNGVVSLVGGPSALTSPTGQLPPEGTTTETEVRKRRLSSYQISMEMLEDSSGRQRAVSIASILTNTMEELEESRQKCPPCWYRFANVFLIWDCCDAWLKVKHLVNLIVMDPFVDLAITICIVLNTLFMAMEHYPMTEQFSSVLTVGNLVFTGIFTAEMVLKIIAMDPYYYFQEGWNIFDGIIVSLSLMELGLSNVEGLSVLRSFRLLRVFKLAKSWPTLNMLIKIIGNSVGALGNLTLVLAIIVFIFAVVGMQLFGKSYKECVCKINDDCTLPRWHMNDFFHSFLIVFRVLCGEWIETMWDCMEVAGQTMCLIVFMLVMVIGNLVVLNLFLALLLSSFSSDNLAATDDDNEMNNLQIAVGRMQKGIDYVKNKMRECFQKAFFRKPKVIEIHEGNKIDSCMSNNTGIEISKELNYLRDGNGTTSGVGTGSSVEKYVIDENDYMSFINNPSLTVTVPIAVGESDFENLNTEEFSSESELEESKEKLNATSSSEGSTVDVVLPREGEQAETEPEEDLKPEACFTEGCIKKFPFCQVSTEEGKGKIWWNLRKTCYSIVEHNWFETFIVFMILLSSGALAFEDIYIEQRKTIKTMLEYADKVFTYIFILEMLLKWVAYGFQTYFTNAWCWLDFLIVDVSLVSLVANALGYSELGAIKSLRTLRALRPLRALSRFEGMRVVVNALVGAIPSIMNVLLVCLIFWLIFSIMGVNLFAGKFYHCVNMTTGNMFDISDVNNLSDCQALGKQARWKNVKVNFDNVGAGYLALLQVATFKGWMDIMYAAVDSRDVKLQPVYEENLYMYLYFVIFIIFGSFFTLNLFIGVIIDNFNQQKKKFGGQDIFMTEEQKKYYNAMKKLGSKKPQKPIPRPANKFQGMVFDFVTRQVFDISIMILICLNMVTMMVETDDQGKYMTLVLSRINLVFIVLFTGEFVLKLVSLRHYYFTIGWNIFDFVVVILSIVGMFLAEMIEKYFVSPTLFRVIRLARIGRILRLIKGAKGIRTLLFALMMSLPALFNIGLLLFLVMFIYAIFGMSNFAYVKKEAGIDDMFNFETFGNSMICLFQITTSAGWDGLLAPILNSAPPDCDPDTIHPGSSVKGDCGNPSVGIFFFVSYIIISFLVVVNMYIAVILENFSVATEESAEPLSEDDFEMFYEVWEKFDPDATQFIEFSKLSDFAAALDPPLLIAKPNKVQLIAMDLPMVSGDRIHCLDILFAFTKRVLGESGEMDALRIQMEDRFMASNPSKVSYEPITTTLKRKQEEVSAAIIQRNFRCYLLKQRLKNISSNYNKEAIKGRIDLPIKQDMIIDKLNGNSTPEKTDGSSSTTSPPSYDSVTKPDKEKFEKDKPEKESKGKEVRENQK

| Compound | inhibition [1] | inhibition [2] | IC50 [3] |
| --- | --- | --- | --- |
| CC(C)NCC(O)c1ccc(NS(C)(=O)=O)cc1 (stereo not drawn) | 4.6% |  |  |
| CCCC(C)C1(CC)C(=O)NC(=O)NC1=O (stereo not drawn) | 7.6% | 1.2% |  |
| CCCCOC(=O)c1ccc(N)cc1 | 36.8% | 7% |  |
| CCN(CC)CC(=O)Nc1c(C)cccc1C | 31.4% | 9.8% |  |
| CCN(CC)CCCCCCCCOC(=O)c1cc(C)c(C)c(C)c1 | 21.6% | 3.4% |  |
| CCN(CC)CCNC(=O)c1ccc(N)cc1 | 22.5% | 7.8% |  |
| CCOC(=O)c1cnc2c(cnn2CC)c1NN=C(C)C | 20.1% | 8.3% |  |
| CC[C@@H](CO)NC(=O)[C@@H]1C=C2c3cccc4c3c(cn4C)C[C@H]2N(C)C1 | 17.8% |  |  |
| CN(C)CCCN1c2ccccc2[S+]([O-])c2ccc(Cl)cc21 (stereo not drawn) | 69.1% | 18% |  |
| CN/C(=N\CCSCc1nc[nH]c1C)NC#N | 4.1% | 0% |  |
| CN1C(=O)CN=C(c2ccccc2)c2cc(Cl)ccc21 | 45.4% | 15.2% |  |
| CN1CC[C@]23c4c5ccc(O)c4O[C@H]2[C@@H](O)C=C[C@H]3[C@H]1C5 | 5.3% |  |  |
| CN1CCc2cc3c(cc2[C@H]1[C@@H]1OC(=O)c2c1ccc1c2OCO1)OCO3 | 1.8% |  |  |
| CNC1=Nc2ccc(Cl)cc2C(c2ccccc2)=[N+]([O-])C1 | 35% | 4.4% |  |
| COc1ccc(C2C(=O)c3ccccc3C2=O)cc1 | 0% | 1.3% |  |
| COc1ccc(C2CNC(=O)C2)cc1OC1CCCC1 (stereo not drawn) | 8.5% | 3.1% |  |
| COc1ccc(Cc2nccc3cc(OC)c(OC)cc23)cc1OC | 56% | 11% |  |
| COc1ccc2c(c1)c(CC(=O)O)c(C)n2C(=O)c1ccc(Cl)cc1 | 11.2% | 3.3% |  |
| C[C@@H]1O[C@H](n2cnc3c(N)ncnc32)C[C@H]1O | 3.5% |  |  |
| C[C@]12CC[C@@H]3c4ccc(O)cc4CC[C@H]3[C@@H]1CC[C@@H]2O | 53.3% | 17.8% |  |
| Cn1c(=O)c2nc(-c3ccc(S(=O)(=O)O)cc3)[nH]c2n(C)c1=O | 2.9% | 1.6% |  |
| Nc1ccncc1 | 3.8% | 1.2% |  |
| Nc1nc(Cl)nc2c1ncn2[C@@H]1O[C@H](CO)[C@@H](O)[C@H]1O | 3.5% | 1.3% |  |
| O=c1n(CCCN2CCN(c3cccc(Cl)c3)CC2)nc2ccccn12 | 79.6% | 26.2% |  |
| CC(C)NC[C@@H](O)COc1cccc2ccccc12 [DEXPROPRANOLOL] |  | 50% | 10 µM |

| Compound | inhibition [1] | inhibition [2] | IC50 [3] |
| --- | --- | --- | --- |
| CN1CC[C@@]23CCCC[C@@H]2[C@@H]1Cc1ccc(O)cc13 [DEXTRORPHAN] |  | 38.2% | 18 µM |
| CC(C)NCC(O)c1ccc(Cl)c(Cl)c1 (stereo not drawn) [DICHLOROISOPROTERENOL] |  | 53% | < 10 µM |
| CCN(CC)CCOC(=O)C1(C2CCCCC2)CCCCC1 [DICYCLOMINE] |  | 75% | 28 µM |
| COc1cc(C(=O)OCCCN2CCCN(CCCOC(=O)c3cc(OC)c(OC)c(OC)c3)CC2)cc(OC)c1OC [DILAZEP] |  | 99.3% | 0.6 µM |
| CCCCc1cc2ccccc2c(OCCN(C)C)n1 [DIMETHISOQUIN] |  | 73.4% | 3.4 µM |
| O=C(Nc1ccccc1)OCC(CN1CCCCC1)OC(=O)Nc1ccccc1 (stereo not drawn) [DIPERODON] |  | 87.8% | 1.3 µM |
| OC(CCCN1CCCCC1)(c1ccccc1)c1ccccc1 [DIPHENIDOL] |  | 65.1% | 3.4 µM |
| CN(C)CCC=C1c2ccccc2COc2ccccc21 [DOXEPIN] |  | 67.7% | < 10 µM |
| CCOC(=O)C1=C(C)NC(C)=C(C(=O)OC)C1c1cccc(Cl)c1Cl (stereo not drawn) [FELODIPINE] |  | 20.1% | 37 µM |
| CN(C)C(=O)C(CCN1CCC(O)(c2ccc(Cl)c(C(F)(F)F)c2)CC1)(c1ccccc1)c1ccccc1 [FLUPERAMIDE] |  | 100% | 0.28 µM |
| OCCN1CCN(CCCN2c3ccccc3Sc3ccc(C(F)(F)F)cc32)CC1 [FLUPHENAZINE] |  | 72.8% | 3.7 µM |
| COc1ccc(CCN(C)CCCC(C#N)(c2cc(OC)c(OC)c(OC)c2)C(C)C)cc1OC (stereo not drawn) [GALLOPAMIL] |  | 67.1% | 3.6 µM |
| COc1cc(C(=O)OCCCN(C)CCN(C)CCCOC(=O)c2cc(OC)c(OC)c(OC)c2)cc(OC)c1OC [HEXOBENDINE] |  | 77.2% | 1.4 µM |
| CC(CNC1CCCCC1)OC(=O)c1ccccc1 (stereo not drawn) [HEXYLCAINE] |  | 54.9% | 7 µM |
| OCCOCCN1CCN(C(c2ccccc2)c2ccc(Cl)cc2)CC1 (stereo not drawn) [HYDROXYZINE] |  | 73.9% | < 10 µM |
| CN(C)CCCN1c2ccccc2CCc2ccccc21 [IMIPRAMINE] |  | 72.7% | 3.6 µM |
| CC(C)Cn1c(=O)n(C)c(=O)c2nc[nH]c21 [ISOBUTYLMETHYLXANTHINE] |  | 0.9% | 1.8 µM |
| CC(C)NC[C@H](O)COc1cccc2ccccc12 [LEVOPROPRANOLOL] |  | 42.6% | 13 µM |
| CN1CC[C@]23CCCC[C@H]2[C@H]1Cc1ccc(O)cc13 [LEVORPHANOL] |  | 33% | 25 µM |
| CN(C)C(=O)C(CCN1CCC(O)(c2ccc(Cl)cc2)CC1)(c1ccccc1)c1ccccc1 [LOPERAMIDE] |  | 100% | 0.27 µM |
| CCCNC(C)(C)COC(=O)c1ccccc1 [MEPRYLCAINE] |  | 57.6% | 7.6 µM |
| CN1CCN2c3ccccc3Cc3ccccc3C2C1 (stereo not drawn) [MIANSERIN] |  | 57.4% | 5.5 µM |
| Cl.NCCCCCCNS(=O)(=O)c1cccc2c(Cl)cccc12 [N-AMINOHEXYL-5-CHLORO-1-NAPTHALENESULFONAMIDE HYDROCHLORIDE] |  | 46.8% | 12 µM |
| COC(=O)C1=C(C)NC(C)=C(C(=O)OCC(C)C)C1c1ccccc1[N+](=O)[O-] (stereo not drawn) [NISOLDIPINE] |  | 25.9% | 26 µM |
| CCOC(=O)C1=C(C)NC(C)=C(C(=O)OC)C1c1cccc([N+](=O)[O-])c1 (stereo not drawn) [NITRENDIPINE] |  | 23.1% | 36 µM |

| Compound | inhibition [1] | inhibition [2] | IC50 [3] |
| --- | --- | --- | --- |
| CNCCC=C1c2ccccc2CCc2ccccc21 [NORTRIPTYLINE] |  | 69.4% | < 10 µM |
| CN(C(=O)CN(CCO)CC(=O)N(C)C(C)(C)Cc1ccccc1)C(C)(C)Cc1ccccc1 [OXETHAZAINE] |  | 83.9% | 2.3 µM |
| CCOc1ccc(C(=O)OCCN(CC)CC)cc1 [PARETHOXYCAINE] |  | 33.2% | 24 µM |
| CCOc1ccc(/N=C(\C)Nc2ccc(OCC)cc2)cc1 [PHENACAINE] |  | 81.1% | 1.7 µM |
| CN(C)CCC(c1ccccc1)c1ccccn1 (stereo not drawn) [PHENIRAMINE] |  | 24.9% | 33 µM |
| Cc1ccc(N(CC2=NCCN2)c2cccc(O)c2)cc1 [PHENTOLAMINE] |  | 54.6% | 8.4 µM |
| C=C(C)[C@@H]1[C@H]2OC(=O)[C@@H]1[C@]1(O)C[C@H]3OC34C(=O)O[C@H]2[C@@]41C.CC(C)(O)[C@@H]1[C@H]2OC(=O)[C@@H]1[C@]1(O)C[C@H]3OC34C(=O)O[C@H]2[C@@]41C (stereo partly drawn) [PICROTOXIN] |  | 22.7% | 700 µM |
| CC1CCCCN1CCCOC(=O)c1ccccc1 (stereo not drawn) [PIPEROCAINE] |  | 43.6% | 13 µM |
| COc1cc2nc(N3CCN(C(=O)c4ccco4)CC3)nc(N)c2cc1OC [PRAZOSIN] |  | 58.6% | 10.1 µM |
| CC(Cc1ccccc1)NCCC(c1ccccc1)c1ccccc1 (stereo not drawn) [PRENYLAMINE] |  | 98.8% | 0.3 µM |
| CCCC(C(=O)OCCN(CC)CC)(c1ccccc1)c1ccccc1 [PROADIFEN] |  | 75.4% | 4.2 µM |
| CCN(CC)CCOC(=O)c1ccc(N)cc1 [PROCAINE] |  | 47.3% | 110 µM |
| CN(C)CCCN1c2ccccc2Sc2ccccc21 [PROMAZINE] |  | 65.3% | 5.4 µM |
| CC(CN1c2ccccc2Sc2ccccc21)N(C)C (stereo not drawn) [PROMETHAZINE] |  | 61% | 6.9 µM |
| CCCOc1ccc(C(=O)OCCN(CC)CC)cc1N [PROPARACAINE] |  | 79.9% | 1.9 µM |
| CCCOc1cc(N)ccc1C(=O)OCCN(CC)CC [PROPOXYCAINE] |  | 30% | 24 µM |
| CNCCCC1c2ccccc2C=Cc2ccccc21 [PROTRIPTYLINE] |  | 70.3% | < 10 µM |
| CCN(CC)CCCC(C)Nc1c2ccc(Cl)cc2nc2ccc(OC)cc12 (stereo not drawn) [QUINACRINE] |  | 73.3% | 3.3 µM |
| COC(=O)[C@H]1[C@H]2C[C@@H]3c4[nH]c5cc(OC)ccc5c4CCN3C[C@H]2C[C@@H](OC(=O)c2cc(OC)c(OC)c(OC)c2)[C@@H]1OC [RESERPINE] |  | 100% | 1.6 µM |
| O=C1C[C@@H]2OCC=C3CN4CC[C@]56c7ccccc7N1[C@H]5[C@H]2[C@H]3C[C@H]46 [STRYCHNINE] |  | 35.7% | 21 µM |
| CSc1ccc2c(c1)N(CCC1CCCCN1C)c1ccccc1S2 (stereo not drawn) [THIORIDAZINE] |  | 63.5% | 6.5 µM |
| CN1CCN(CCCN2c3ccccc3Sc3ccc(C(F)(F)F)cc32)CC1 [TRIFLUOPERAZINE] |  | 79.8% | 5 µM |
| COC(=O)[C@@H]1[C@H]2C[C@H]3c4[nH]c5ccccc5c4CCN3C[C@@H]2CC[C@@H]1O [YOHIMBINE] |  | 25.6% | 33 µM |
| Cc1ccc(OCC(O)C(C)NC(C)C)c2c1CCC2 (stereo not drawn) [ZENIDOLOL] |  | 64.2% | < 10 µM |
